Literature values in US20230277510A1, “SIROLIMUS MICROSPHERES AND METHOD OF MAKING SIROLIMUS MICROSPHERES” (M.A. Med Alliance SA, priority 2022, published 2023).

octanol/water partition coefficient (log P): 4.3
Structure (SMILES): CO[C@H]1C[C@@H]2CC[C@@H](C)[C@@](O)(O2)C(=O)C(=O)N2CCCC[C@H]2C(=O)O[C@H]([C@H](C)C[C@@H]2CC[C@@H](O)[C@H](OC)C2)CC(=O)[C@H](C)/C=C(\C)[C@@H](O)[C@@H](OC)C(=O)[C@H](C)C[C@H](C)/C=C/C=C/C=C/1C [SRL, sirolimus]
